According to patent publication US4177264A, “N-benzyl anthracyclines” (priority 1978, dated 1979):
Read-outs that look alike come from different tables or passages of the source. One block for each compound: values may come before it.

Legend:
leukemia P388 = assay: Ip P388 leukemia in mice, survival time (NCI Protocol 1,200); type: in vivo; settings: for response vs control in vivo at 8 mg/kg: q4d 5,9,13, 8 mg/kg; for response vs control in vivo at 37.5 mg/kg: q4d 5,9,13, 37.5 mg/kg (optimum dose)
Source text: (§1) Sufficient samples of all but compound (VIII) have been obtained for biological screening, and recent results of tests both in vitro and in vivo are shown in Table 2 below. […] The in vitro results are surprising and appear to be highly significant in that there is an abrupt and unexpected loss of DNA-binding properties in going from N-benzyl to N,N-dibenzyl compounds. ΔTm is the most direct measure of DNA-binding but the inhibition of nucleic acid synthesis is also lost. Most of the anthracyclines bind to DNA, presumably by an intercalation mechanism and are mutagenic. In these N,N-dibenzyl compounds the anti-tumor activity in the mouse screen is retained but the DNA-binding properties are lost.
Highest Mean T/C vs P388 in
^d Ip P388 leukemia treated ip on QD1-9 and Q4D 5,9,13 schedules
according to standard NCI protocols. Assay described in R. I. Geran, N. H
Greenberg, M. M. MacDonald, A. M. Schumacker and B. J. Abbott, Cancer
Chemother. Rep., Part 3, 3, (No. 2), 9 (1972), Protocol 1,200. T/C = rati
of survival time of treated mice to that of untreated controls times 100.
Untreated controls survive about 9 days. For Dnm and Adm, % T/C values ar
means from several dozen tests, with standard deviation up to ±40. For
the Nbenzyl compounds, % T/C values are means from all the tests (1 to 3)
so far, at the optimum dose.

isolated helical DNA = assay: ΔTm of isolated helical DNA (DNA-binding); settings: difference in DNA melting temperature with and without drug; ~1° weak binding if any, ≥5° significant binding
Source text: as §1
^b ΔTm values represent the difference in temperature
between that at which the DNA denatures (or melts) without the drug and
that at which denaturing occurs in the presence of the drug;

L1210 Cells [1] = assay: Inhibition of RNA synthesis in L1210 cells; type: cell-based; settings: Mus musculus
Source text: (§2) ^c Assay described in G. Tong, W. W. Lee, D. R. Black and D. W. Henry

L1210 Cells [2] = assay: Inhibition of DNA synthesis in L1210 cells; type: cell-based; settings: Mus musculus
Source text: as §2

[3] = Mus musculus, P388, ip, mean from several dozen tests, SD up to ±40, read-out: Highest Mean T/C vs P388 in Mice
[4] = L1210 cells, RNA synthesis, read-out: Inhib of Synth, RNA, ED50
[5] = L1210 cells, DNA synthesis, read-out: Inhib of Synth, DNA, ED50
[6] = Mus musculus, P388, ip, qd 1-9, 6.25 mg/kg (optimum dose), mean from 1 to 3 tests, read-out: Highest Mean T/C vs P388 in Mice
[7] = Mus musculus, P388, ip, mean from 1 to 3 tests, read-out: Highest Mean T/C vs P388 in Mice
[8] = Mus musculus, P388, ip, read-out: Highest Mean T/C vs P388 in Mice
[9] = L1210, read-out: Inhib of Synth, RNA, ED50
[10] = L1210, read-out: Inhib of Synth, DNA, ED50

Compound: COc1cccc2c1C(=O)c1c(O)c3c(c(O)c1C2=O)C[C@@](O)(C(=O)CO)C[C@@H]3O[C@H]1C[C@H](N)[C@H](O)[C@H](C)O1 [X, Adriamycin, reference compound]
- response vs control in vivo at 8 mg/kg (leukemia P388; [3]): 157%
- response vs control in vivo at 1 mg/kg (leukemia P388; Mus musculus, P388, ip, qd 1-9, 1.0 mg/kg, mean from several dozen tests, SD up to ±40, read-out: Highest Mean T/C vs P388 in Mice): 193%
- ΔTm (isolated helical DNA): 13.4 °C
- IC50 (L1210 Cells [1]; [4]): 0.67 µM
- IC50 (L1210 Cells [2]; [5]): 1.5 µM

- ΔTm (isolated helical DNA): 11.3 °C
- IC50 (L1210 Cells [1]; [4]): 0.09 µM
- IC50 (L1210 Cells [2]; [5]): 0.65 µM
Compound: COc1cccc2c1C(=O)c1c(O)c3c(c(O)c1C2=O)C[C@@](O)(C(=O)CO)C[C@@H]3O[C@H]1C[C@H](NCc2ccccc2)[C@H](O)[C@H](C)O1 [III, N-Benzyladriamycin]
- response vs control in vivo at 18.8 mg/kg (leukemia P388; Mus musculus, P388, ip, q4d 5,9,13, 18.8 mg/kg (optimum dose), mean from 1 to 3 tests, read-out: Highest Mean T/C vs P388 in Mice): 200%
- response vs control in vivo at 6.25 mg/kg (leukemia P388; [6]): 224%

Compound: COc1cccc2c1C(=O)c1c(O)c3c(c(O)c1C2=O)C[C@@](O)(C(C)O)C[C@@H]3O[C@H]1C[C@H](N(Cc2ccccc2)Cc2ccccc2)[C@H](O)[C@H](C)O1 (stereo partly shown) [Compound VI, N,N-Dibenzyl-13-dihydrodaunomycin]
- response vs control in vivo at 50 mg/kg (leukemia P388; Mus musculus, P388, ip, q4d 5,9,13, 50 mg/kg (optimum dose), mean from 1 to 3 tests, read-out: Highest Mean T/C vs P388 in Mice): 233%
- response vs control in vivo at 40 mg/kg (leukemia P388; Mus musculus, P388, ip, qd 1-9, 40 mg/kg (optimum dose), mean from 1 to 3 tests, read-out: Highest Mean T/C vs P388 in Mice): 229%
- ΔTm (isolated helical DNA): 0.6 °C
- IC50 (L1210 Cells [1]; [4]): 7.6 µM
- IC50 (L1210 Cells [2]; L1210 cells, DNA synthesis, (susp), read-out: Inhib of Synth, DNA, ED50 (susp)): 220 µM

Compound: COc1cccc2c1C(=O)c1c(O)c3c(c(O)c1C2=O)C[C@@](O)(C(C)=O)C[C@@H]3O[C@H]1C[C@H](N(Cc2ccccc2)Cc2ccccc2)[C@H](O)[C@H](C)O1 [Compound V, N,N-Dibenzyldaunomycin]
- response vs control in vivo at 37.5 mg/kg (leukemia P388; [7]): 227%
- response vs control in vivo at 25 mg/kg (leukemia P388; Mus musculus, P388, ip, qd 1-9, 25 mg/kg (optimum dose), mean from 1 to 3 tests, read-out: Highest Mean T/C vs P388 in Mice): 259%
- activity against leukemia P388 in mice (in words) (leukemia P388; ip, mice): clearly the best
- ΔTm (isolated helical DNA): 1.35 °C
- IC50 (L1210 Cells [1]; [4]): 10 µM
- IC50 (L1210 Cells [2]; [5]): > 100 µM

Compound: COc1cccc2c1C(=O)c1c(O)c3c(c(O)c1C2=O)C[C@@](O)(C(C)=O)C[C@@H]3O[C@H]1C[C@H](NCc2ccccc2)[C@H](O)[C@H](C)O1 [I, N-Benzyldaunomycin]
- response vs control in vivo at 6.25 mg/kg (leukemia P388; [8]): 187%
- response vs control in vivo at 18.8 mg/kg (leukemia P388; [8]): 226%
- ΔTm (isolated helical DNA): 10.2 °C
- IC50 (L1210 Cells [1]; [9]): 0.17 µM
- IC50 (L1210 Cells [2]; [10]): 1.6 µM

- ΔTm (isolated helical DNA): 6.25 °C
- IC50 (L1210 Cells [1]; [4]): 0.32 µM
- IC50 (L1210 Cells [2]; [5]): 1.7 µM
Compound: COc1cccc2c1C(=O)c1c(O)c3c(c(O)c1C2=O)C[C@@](O)(C(C)O)C[C@@H]3O[C@H]1C[C@H](NCc2ccccc2)[C@H](O)[C@H](C)O1 (stereo partly shown) [II, N-Benzyl-13-dihydrodaunomycin]
- response vs control in vivo at 6.25 mg/kg (leukemia P388; [6]): 226%

- ΔTm (isolated helical DNA): 7.6 °C
- IC50 (L1210 Cells [1]; [4]): 0.29 µM
- IC50 (L1210 Cells [2]; [5]): 1.4 µM
Compound: COc1cccc2c1C(=O)c1c(O)c3c(c(O)c1C2=O)C[C@@](O)(C(O)CO)C[C@@H]3O[C@H]1C[C@H](NCc2ccccc2)[C@H](O)[C@H](C)O1 (stereo partly shown) [IV, N-Benzyl-13-dihydroadriamycin]
- response vs control in vivo at 37.5 mg/kg (leukemia P388; [7]): 143%
- response vs control in vivo at 1.56 mg/kg (leukemia P388; Mus musculus, P388, ip, qd 1-9, 1.56 mg/kg (optimum dose), mean from 1 to 3 tests, read-out: Highest Mean T/C vs P388 in Mice): 196%

Compound: COc1cccc2c1C(=O)c1c(O)c3c(c(O)c1C2=O)C[C@@](O)(C(C)=O)C[C@@H]3O[C@H]1C[C@H](N)[C@H](O)[C@H](C)O1 [IX, Daunomycin, reference compound]
- response vs control in vivo at 8 mg/kg (leukemia P388; [3]): 134%
- response vs control in vivo at 0.5 mg/kg (leukemia P388; Mus musculus, P388, ip, qd 1-9, 0.5 mg/kg, mean from several dozen tests, SD up to ±40, read-out: Highest Mean T/C vs P388 in Mice): 167%
- IC50 (L1210 Cells [1]; [4]): 0.3 µM
- IC50 (L1210 Cells [2]; [5]): 1 µM

Compound: COc1cccc2c1C(=O)c1c(O)c3c(c(O)c1C2=O)C[C@@](O)(C(=O)CO)C[C@@H]3O[C@H]1C[C@H](N(Cc2ccccc2)Cc2ccccc2)[C@H](O)[C@H](C)O1 [Compound VII, N,N-Dibenzyladriamycin]
- response vs control in vivo at 6.25 mg/kg (leukemia P388; [8]): 175%
- ΔTm (isolated helical DNA): -1.2 °C
- IC50 (L1210 Cells [1]; [9]): 4.8 µM
- IC50 (L1210 Cells [2]; [10]): 110 µM
